Assay results reported in patent US20030180735A1, “Screening method” (priority 1999, published 2003).

Assays:
Assay type in all cases: cell-based
HeLa cells [1] = settings: together with 5 μg/ml cycloheximide, 18 hours, crystal violet
Experimental: In our system, cells are cultured in 96 well plates in 100 μl of culture medium and are treated in ways known to induce apoptosis. Following an indicated period of time, 10 μl MTT stock solution (5 mg/mi) is added to each culture being assayed and incubated at 37° C. for 4 h. At the end of the incubation period the converted dye is solubilised with acidic-isopropanol (0.04N HCL. Absorbance of converted dye is measured at a wavelength of 570 nm.
The following example describes a method to analyse viability of adherent cells, such as HeLa, using chemical stain Crystal Violet. Adherent cells are cultured in the presence of known agents to induce/ modulate the apoptotic process. After a suitable period of time, supernatants are removed by inverting and flicking the plate. Wells are washed twice with PBS and remaining adherent cells are fixed with 100% EtOH and air-dried. To each well is added 100 μl of 1% aqueous Crystal Violet Solution (Sigma). Plates are then incubated at room temperature (RT) for 5 min before washing in tap water. Wells are solubilised in 33% acetic acid and optical density is measured at 570 nm using a plate reader.
HeLa cells are plated in full culture medium at a concentration of 2×10^4 cells/well of 96 well plate. […] Cells are cultured overnight at 37° C. before analysing for apoptosis using either MTT or crystal violet.
HeLa cells are plated in full culture medium at a concentration of 2×10^4 cells/well of 96 well plate. […] Cells are cultured overnight at 37° C. before analysing for apoptosis using crystal violet.
HeLa cells are plated into 96 well plate at a concentration of 2×10^4/well and allowed to adhere for 4 hours Culture medium is then replaced with fresh medium containing the indicated concentrations of TNFα together with 5 μg/ml cycloheximide. Cultures are maintained for a further 18 hours, before measuring apoptosis with crystal violet and reading @570 nm in a plate reader.
Cells are cultured for a further 18 h before staining the remaining adherent cells with crystal violet and measuring absorbance at 570 nm.

HeLa cells [2] = assay: HeLa DNA fragmentation (laddering on 2% agarose gel); settings: TNFα dose range with 5 μg/ml cycloheximide, 18 h
Experimental: HeLa cells are plated in full culture medium at a concentration of 5×10^5 cells/well of 24 well plate. […] Cells are cultured overnight at 37° C. before being lysed (5×10^6/treatment) in lysis buffer (1M Tris, 10 mM EDTA , 0.8% sarcosine L sulphate) and incubated on ice for 15 min before centrifugation at 12000g. Supernatant is removed and phenol/chloroform extracted. Following precipitation of DNA, pellets are resuspended in Tris/EDTA buffer (TE) containing 100 μg/ml RNAase A and incubated for 2 h @37° C. Proteinase K (100 μg/ml) is then added and sample incubated for a further 18 h before […] of DNA is separated on a 2% agarose gel.
HeLa cells are plated into 24 well plate at a concentration of 5×10^5/well and allowed to adhere for 4 hours Culture medium is then replaced with fresh medium containing the indicated concentrations of TNFα together with 5 μg/ml cycloheximide. Cultures are maintained for a further 18 h, before isolation of DNA from 5×10^6 cells/treatment (as previously described) and running on a 2% gel.

[3] = test system: primary human neutrophils; assay: Neutrophil spontaneous apoptosis by cell shrinkage (forward scatter, flow cytometry); settings: 6 hours of culture
Experimental: FIG. 4: Inhibition of NADPH oxidase can decrease the number of cells undergoing apoptosis. Neutrophils are cultured @2×10^6/ml in a 24 well plate. Following 6 hours of culture, Forward Scatter (FSc) parameters are examined following acquisition by a FacScan. Cell shrinkage is determined by the percentage of cells with reduced FSc compared with cellular FSc parameters at t=0 h.
Onset of apoptosis as determined by cell shrinkage was determined by flow cytometry. Isolated cells are set up in culture at a concentration of 2×10^6/ml. At the indicated time points a sample is removed and the forward and side scatter parameters of the cells are measured by flow cytometry using a Becton Dickenson FACScan equipped with CellQuest software. Cell shrinkage is detected by a reduction in forward scatter parameters. Determination of apoptosis inhibition was calculated by the percentage of cells with reduced forward scatter parameters, in untreated cultures, minus percentage of cells with reduced forward scatter parameters in treated cultures.
Primary human neutrophils are isolated and puriied from the peripheral blood of normal healthy individuals. Upon culture for 6 hour in a serum-containing cell culture medium, these neutrophils undergo ‘spontaneous apoptosis’ (Haslett, Clinical Science 83, pp639-648, 1992). […]

Row | Compound | amount of HeLa apoptosis vs TNFα concentration (HeLa cells [1]) | DNA laddering (HeLa cells [2]) | percentage of cells undergoing apoptosis (cell shrinkage, reduced FSc) [3]
1 | TNFα | dose. response | DNA fragmentation is seen in all samples treated with TNFα | –
2 | c1ccc2c(c1)[I+]c1ccccc1-2 [DPI] | – | – | decrease the percentage of cells undergoing apoptosis
